The results in this text go back to US8722937B2 (priority 2006, dated 2014).

Values after ≈ are worked out from the molar mass of the structure shown. Read-outs that look alike come from different tables or passages of the source.

In test [1] the target is T1, FabH derived from E. coli (ecFabH) (Escherichia coli, UniProt P0A6R0).
T1 construct: polyhistidine (N); made in house; host or cells: E. coli
T1 sequence (P0A6R0 1-317): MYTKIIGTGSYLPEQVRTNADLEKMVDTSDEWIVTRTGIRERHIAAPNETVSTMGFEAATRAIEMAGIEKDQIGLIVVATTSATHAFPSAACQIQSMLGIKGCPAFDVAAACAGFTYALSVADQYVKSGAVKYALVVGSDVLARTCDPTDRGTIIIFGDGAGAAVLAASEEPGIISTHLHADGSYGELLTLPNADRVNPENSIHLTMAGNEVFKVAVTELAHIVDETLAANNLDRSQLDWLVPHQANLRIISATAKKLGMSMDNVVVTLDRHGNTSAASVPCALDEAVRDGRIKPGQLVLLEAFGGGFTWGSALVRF
Kind of test: FabH enzyme assay (coupled trichloroacetic acid precipitation assay), ecFabH. Conditions: 5 μM of test compound; read-out: Percent inhibition of FabH derived from E. coli, ecFabH (%). It is filed as biochemical.

Test [2] concerns S. aureus (ATCC 25923). Kind of test: microbe, parasite or virus in culture. The test is classed as cell-based, Staphylococcus aureus. To be noted: for zone of inhibition at 20 µg/disc: Staphylococcus aureus, ATCC25923; for zone of inhibition at 20 µg/disc / Zones of growth inhibition of S. aureus (ATCC 25923) / Zones of growth inhibition of S. aureus (ATCC 25923), areas of partial inhibition: 24 h, 37° C.

Test [3] has as its system methicillin-resistant S. aureus (MRSA). Briefly: microbe, parasite or virus in culture. It is filed as cell-based, Staphylococcus aureus. Conditions: for zone of inhibition at 20 µg/disc: Staphylococcus aureus, MRSA, read-out: Average zones of growth inhibition of MRSA (USF-652-659, 919-920).
The test system of test [4] is S. aureus (ATCC 25923). Briefly: Agar dilution minimum inhibitory concentration (MIC), S. aureus. The test is classed as cell-based, Staphylococcus aureus. To be noted: for MIC: Staphylococcus aureus.
Test [5] deals with B. anthracis (USF 848). Kind of test: microbe, parasite or virus in culture. It is filed as cell-based, Bacillus anthracis. To be noted: 24 h, 37° C.; for zone of inhibition at 20 µg/disc: Bacillus anthracis.
Test [6] has as its system B. anthracis (USF 848). Kind of test: microbe, parasite or virus in culture. To be noted: for MIC: Bacillus anthracis, read-out: Minimum inhibitory concentration (MIC) against B. anthracis (USF 848). The test is classed as cell-based, Bacillus anthracis.
Test [7] concerns E. coli (K12; ATCC 23590). Briefly: Kirby-Bauer zones of inhibition, E. coli. It is filed as cell-based, Escherichia coli. To be noted: for Zone of Inhibition (mm), E. coli, zones of partial inhibition / Zone of Inhibition (mm), E. coli: K12 strain, ATCC 23590; for Zone of Inhibition (mm), E. coli, zones of partial inhibition: number in parentheses; for Zone of Inhibition (mm), E. coli: number outside parentheses; for zone of inhibition against E. coli: full or partial not stated.

Test [8] relates to E. coli (K12; ATCC 23590). Kind of test: Minimum inhibitory concentration (MIC), E. coli. It is filed as cell-based. To be noted: Escherichia coli, ATCC23590, read-out: MIC (μg/mL) against E. coli.
Where [9] appears, read: read-out: Zones of growth inhibition of S. aureus (ATCC 25923).
Where [10] appears, read: read-out: Zones of growth inhibition of S. aureus (ATCC 25923), areas of partial inhibition.
[11] abbreviates: ATCC 25923 / MSSA, read-out: MIC (MSSA).
Setting [12] is: ATCC25923, serial dilution in 24-well plate, NCCLS, read-out: Minimum inhibitory concentration (MIC) against S. aureus (ATCC 25923).
Setting [13] is: read-out: Zones of growth inhibition of B. anthracis (USF 848).
Setting [14] is: read-out: Zones of growth inhibition of B. anthracis (USF 848), areas of partial growth inhibition.

As for `CC(C)SSc1ccc([N+](=O)[O-])cc1` [Compound 38c, Isopropyl p-nitrophenyl disulfide], in test [1], the inhibition at 5 µM came out at 98.5%. The “Zone (MSSA)” value in the test with S. aureus (ATCC 25923) [2] turned out to be 47 mm. Moreover, the zone of inhibition at 20 µg/disc was found to be 68 mm with S. aureus (ATCC 25923) [2] (setting [9]); 85 mm with S. aureus (ATCC 25923) [2] (setting [10]); 75 mm in test [3] (24 h, 37° C.); 71 mm in the test with B. anthracis (USF 848) [5] (setting [13]). Further, in test [3], the “Zone (MRSA)” value worked out at 70 mm. Further, the MIC with S. aureus (ATCC 25923) [4] (setting [11]) was 0.8 µg/mL (≈ 3.49 µM); in the test with S. aureus (ATCC 25923) [4] (setting [12]) it was 0.4 µg/mL (≈ 1.74 µM); in the test on B. anthracis (USF 848) [6] it was below 0.125 µg/mL; in test [8] it was 96 µg/mL (≈ 419 µM). Further, in test [7], the “Zone of Inhibition (mm), E. coli, zones of partial inhibition” value (shortened to “Zone of Inhibition … of partial inhibition”) is “(11) mm”.

Turning to `CCC(C)SSc1ccc([N+](=O)[O-])cc1` (stereo not drawn) [Compound 38d, Sec-Butyl p-nitrophenyl Disulfide], the inhibition at 5 µM in test [1] worked out at 96%. In the test with S. aureus (ATCC 25923) [2], the “Zone (MSSA)” value stood at 67 mm. In addition, the zone of inhibition at 20 µg/disc was 47 mm in the test on S. aureus (ATCC 25923) [2] (setting [9]); 68 mm in the test with S. aureus (ATCC 25923) [2] (setting [10]); 54 mm in test [3] (24 h, 37° C.); 56 mm in the test on B. anthracis (USF 848) [5] (setting [13]); 62 mm with B. anthracis (USF 848) [5] (setting [14]). Besides, the “Zone (MRSA)” value in test [3] is on record as 54 mm. In addition, the MIC in the test with S. aureus (ATCC 25923) [4] (setting [11]) is 0.4 µg/mL (≈ 1.64 µM); with S. aureus (ATCC 25923) [4] (setting [12]), 0.8 µg/mL (≈ 3.29 µM); with B. anthracis (USF 848) [6], below 0.125 µg/mL; in test [8], 128 µg/mL (≈ 526 µM). Moreover, the “Zone of Inhibition … of partial inhibition” value in test [7] is recorded as “(10) mm”.

For the compound `CCCSSc1ccc([N+](=O)[O-])cc1` [Compound 38e, p-Nitrophenyl n-propyl Disulfide], in test [1], the inhibition at 5 µM was 91%. In addition, the zone of inhibition at 20 µg/disc amounted to 36 mm in the test with S. aureus (ATCC 25923) [2] (setting [9]); 43 mm in the test with S. aureus (ATCC 25923) [2] (setting [10]); 38 mm in test [3] (24 h, 37° C.); 49 mm in the test with B. anthracis (USF 848) [5] (setting [13]); 57 mm with B. anthracis (USF 848) [5] (setting [14]). For the same compound, the MIC was 24 µg/mL (≈ 105 µM) in the test with S. aureus (ATCC 25923) [4] (setting [12]), 1 µg/mL (≈ 4.36 µM) with B. anthracis (USF 848) [6] and 64 µg/mL (≈ 279 µM) in test [8]. Besides, in test [7], the “Zone of Inhibition … of partial inhibition” value is given as 21 mm. The “Zone of Inhibition (mm), E. coli” value in test [7] is 16 mm.

For the compound `CCCCSSc1ccc([N+](=O)[O-])cc1` [Compound 38f, n-Butyl p-nitrophenyl Disulfide], in test [1], the inhibition at 5 µM stood at 93%. Further, the zone of inhibition at 20 µg/disc in the test on S. aureus (ATCC 25923) [2] (setting [9]) was found to be 41 mm; with S. aureus (ATCC 25923) [2] (setting [10]) it was 53 mm; in test [3] (24 h, 37° C.) it was 28 mm; in the test with B. anthracis (USF 848) [5] (setting [13]), 44 mm; with B. anthracis (USF 848) [5] (setting [14]), 52 mm. For the same compound, the figures for the MIC (in the test with S. aureus (ATCC 25923) [4] (setting [12]); in the test on B. anthracis (USF 848) [6]; in test [8]) were 32 µg/mL (≈ 131 µM), 1 µg/mL (≈ 4.11 µM) and 96 µg/mL (≈ 394 µM), respectively. The “Zone of Inhibition … of partial inhibition” value in test [7] came out at 22 mm. In addition, the “Zone of Inhibition (mm), E. coli” value in test [7] is recorded as 15 mm.

For the compound `CSSc1cccc([N+](=O)[O-])c1` [Compound 43a, Methyl m-nitrophenyl Disulfide], in the test with S. aureus (ATCC 25923) [2], the “Zones of growth inhibition of S. aureus (ATCC 25923)” value is recorded as 27 (36) mm. Besides, in the test on S. aureus (ATCC 25923) [2], the “Zones of growth inhibition of S. aureus (ATCC 25923), areas of partial inhibition” value (from here on “Zones … areas of partial inhibition”) is 27 (36) mm. In addition, the zone of inhibition at 20 µg/disc in the test with S. aureus (ATCC 25923) [2] (setting [9]) worked out at 27 mm; with S. aureus (ATCC 25923) [2] (setting [10]) it was 36 mm; in test [3] (24 h, 37° C.) it was 15 mm; in the test on B. anthracis (USF 848) [5] (setting [13]) it was 43 mm. Further, the MIC came out at 16 µg/mL (≈ 79.5 µM) in the test on S. aureus (ATCC 25923) [4] (setting [12]) and 2 µg/mL (≈ 9.94 µM) in the test on B. anthracis (USF 848) [6]. Also, the “zone of inhibition against E. coli” value in test [7] is recorded as 10 mm.

Regarding `CCC(C)SSc1cccc([N+](=O)[O-])c1` (stereo not drawn) [Compound 43d, s-Butyl m-nitrophenyl Disulfide], in the test on S. aureus (ATCC 25923) [2], the “Zones of growth inhibition of S. aureus (ATCC 25923)” value is reported as 25 (45) mm. For the same compound, the “Zones … areas of partial inhibition” value in the test with S. aureus (ATCC 25923) [2] was 25 (45) mm. The zone of inhibition at 20 µg/disc with S. aureus (ATCC 25923) [2] (setting [9]) was 25 mm; in the test with S. aureus (ATCC 25923) [2] (setting [10]) it was 45 mm; in test [3] (24 h, 37° C.), 22 mm; in the test with B. anthracis (USF 848) [5] (setting [13]), 27 mm; in the test with B. anthracis (USF 848) [5] (setting [14]), 41 mm. The values for the MIC in the test on S. aureus (ATCC 25923) [4] (setting [12]) and in the test on B. anthracis (USF 848) [6] were 2 µg/mL (≈ 8.22 µM) and below 0.125 µg/mL, respectively.

With `CSSc1ccccc1[N+](=O)[O-]` [Compound 44a, Methyl o-nitrophenyl Methyl Disulfide], in the test on S. aureus (ATCC 25923) [2], the “Zones of growth inhibition of S. aureus (ATCC 25923)” value is given as 34(37) mm and the “Zones … areas of partial inhibition” value is reported as 34(37) mm. Moreover, in test [3] (24 h, 37° C.), the “Average zones of growth inhibition of MRSA (USF-652-659, 919-920)” value worked out at 26 mm. Also, the “Minimum inhibitory concentration (MIC) against S. aureus (ATCC 25923)” value with S. aureus (ATCC 25923) [4] (serial dilution in 24-well plate, NCCLS) worked out at 64 µg/mL (≈ 318 µM). The “Zones of growth inhibition of B. anthracis (USF 848)” value in the test with B. anthracis (USF 848) [5] worked out at 31 mm. Further, the “Minimum inhibitory concentration (MIC) against B. anthracis (USF 848)” value in the test on B. anthracis (USF 848) [6] was 4 µg/mL (≈ 19.9 µM). The “zone of inhibition against E. coli” value in test [7] is 9 mm.

On to `CC(C)SSc1ccccc1[N+](=O)[O-]` [Compound 44c, Isopropyl o-nitrophenyl Disulfide], for which the “Zones of growth inhibition of S. aureus (ATCC 25923)” value in the test on S. aureus (ATCC 25923) [2] is on record as 17 (31) mm. The “Zones … areas of partial inhibition” value in the test on S. aureus (ATCC 25923) [2] is 17 (31) mm. Besides, the zone of inhibition at 20 µg/disc is 17 mm with S. aureus (ATCC 25923) [2] (setting [9]); 31 mm with S. aureus (ATCC 25923) [2] (setting [10]); 20 mm in test [3] (24 h, 37° C.); 16 mm in the test on B. anthracis (USF 848) [5] (setting [13]); 27 mm in the test on B. anthracis (USF 848) [5] (setting [14]). Also, the MIC in the test with S. aureus (ATCC 25923) [4] (setting [12]) worked out at 6 µg/mL (≈ 26.2 µM); in the test on B. anthracis (USF 848) [6], 0.63 µg/mL (≈ 2.75 µM).
